Assay results taken from patent US20260049076A1, “Tertiary Amine Substituted Bicyclic Compounds Useful as T Cell Activators” (BRISTOL-MYERS SQUIBB COMPANY, priority 2022, published 2026).

How the values were obtained:
[1] = biological target: T1, human DGKα (Homo sapiens, UniProt P23743); test: In vitro DGK inhibition assay, DGKα liposome (LIPGLO) assay; type: biochemical; conditions: read-out: Enzyme Inhibition DGKalpha IC50
T1 construct: TVMV protease cleavage site (C); Hexa-His (C); made in house; host or cells: Sf9 insect cells (baculovirus)
Description: (§1) The DGKα and DGKζ reactions were performed using either extruded liposome (DGKα and DGKζ LIPGLO assays) or detergent/lipid micelle substrate (DGKα and DGKζ assays). The reactions were carried out in 50 mM MOPS pH 7.5, 100 mM NaCl, 10 mM MgCl2, 1 μM CaCl2, and 1 mM DTT (assay buffer). The reactions using a detergent/lipid micelle substrate also contained 50 mM octyl B-D-glucopyranoside. The lipid substrate concentrations were 11 mM PS and 1 mM DAG for the detergent/lipid micelle reactions. The lipid substrate concentrations were 2 mM PS, 0.25 mM DAG, and 2.75 mM PC for the extruded liposome reactions (5 mM total lipid). The reactions were carried out in 150 μM ATP The enzyme concentrations for the DGKα and DGKζ were 5 nM
(§2) The compound inhibition studies were carried out as follows: 25 nL (ADPGLO assay) or 50 nL (LIPGLO assay) droplets of each test compound (top concentration 10 mM with 11 point, 3-fold dilution series for each compound) solubilized in DMSO were transferred to wells of a white 1536 well plate (Corning 3725). A 5 mL enzyme/lipid substrate solution at 2× final reaction concentration was prepared by combining 2.5 mL 4× enzyme solution (20 nM DGKα, or DGKζ (prepared as described below) in assay buffer) and 2.5 mL of either 4× liposome or 4× detergent/lipid micelle solution (compositions described below) and incubated at room temperature for 10 minutes. Next, 1 μL 2× enzyme/lipid substrate solution was added to wells containing the test compound and reactions were initiated with the addition of 1 μL 300 uM ATP. The reactions were allowed to proceed for 2 hr (ADPGLO assay) or 1 hr (LIPGLO assay), after which 2 μL Glo Reagent (Promega V9101) was added and incubated for 40 minutes. Next, 4 μL Kinase Detection Reagent was added and incubated for 30 minutes. Luminescence was recorded using an EnVision microplate reader. […] The compounds were evaluated at 11 concentrations to determine IC50.
(§3) The lipid composition was 5 mol % DAG (Avanti 8008110), 40 mol % PS (Avanti 840035P), and 55 mol % PC (Avanti 850457) at a total lipid concentration of 7-8 mg/mL for the liposome solution. The PC, DAG, and PS were dissolved in chloroform, combined, and dried in vacuo to a thin film. The lipids were hydrated to 20 mM in 50 mM MOPS pH 7.5, 100 mM NaCl, 5 mM MgCl2, and were freeze-thawed five times. The lipid suspension was extruded through a 100 nm polycarbonate filter 10-12 times. […] The liposome preparation was stored at 4° C. for as long as four weeks.
as §3, with “15.2” for “7-8”, “the 4×” for “the”, “eleven” for “10-12”
(§4) Human DGK-alpha-TVMV-His-pFBgate and human DGK-zeta-transcript variant-2-TVMV-His-pFBgate baculovirus samples were generated using the Bac-to-Bac baculovirus expression system (Invitrogen) according to the manufacturer's protocol. […] Baculovirus amplification was achieved using infected Sf9 cells at 1:1500 virus/cell ratios, and grown for 65 hours at 27° C. post-transfection.
(§5) The expression scale up for each protein was carried out in the Cellbag 50L WAVE-Bioreactor System 20/50 from GE Healthcare Bioscience. 12 L of 2×10^6 cells/mL Sf9 cells (Expression System, Davis, CA) grown in ESF921 insect medium (Expression System) were infected with virus stock at 1:200 virus/cell ratios, and grown for 66-68 hours at 27° C. post-infection.

[2] = biological target: T2, human DGKζ (Homo sapiens, UniProt Q13574); test: In vitro DGK inhibition assay, DGKζ liposome (LIPGLO) assay; type: biochemical; conditions: read-out: Enzyme Inhibition DGKzeta IC50
T2 construct: TVMV protease cleavage site (C); Hexa-His (C); made in house; host or cells: Sf9 insect cells (baculovirus)
Description: as §1, §2, §3
as §3, with “15.2” for “7-8”, “the 4×” for “the”, “eleven” for “10-12”
as §4, §5

T1 sequence (P23743 with tags, fused parts or gaps): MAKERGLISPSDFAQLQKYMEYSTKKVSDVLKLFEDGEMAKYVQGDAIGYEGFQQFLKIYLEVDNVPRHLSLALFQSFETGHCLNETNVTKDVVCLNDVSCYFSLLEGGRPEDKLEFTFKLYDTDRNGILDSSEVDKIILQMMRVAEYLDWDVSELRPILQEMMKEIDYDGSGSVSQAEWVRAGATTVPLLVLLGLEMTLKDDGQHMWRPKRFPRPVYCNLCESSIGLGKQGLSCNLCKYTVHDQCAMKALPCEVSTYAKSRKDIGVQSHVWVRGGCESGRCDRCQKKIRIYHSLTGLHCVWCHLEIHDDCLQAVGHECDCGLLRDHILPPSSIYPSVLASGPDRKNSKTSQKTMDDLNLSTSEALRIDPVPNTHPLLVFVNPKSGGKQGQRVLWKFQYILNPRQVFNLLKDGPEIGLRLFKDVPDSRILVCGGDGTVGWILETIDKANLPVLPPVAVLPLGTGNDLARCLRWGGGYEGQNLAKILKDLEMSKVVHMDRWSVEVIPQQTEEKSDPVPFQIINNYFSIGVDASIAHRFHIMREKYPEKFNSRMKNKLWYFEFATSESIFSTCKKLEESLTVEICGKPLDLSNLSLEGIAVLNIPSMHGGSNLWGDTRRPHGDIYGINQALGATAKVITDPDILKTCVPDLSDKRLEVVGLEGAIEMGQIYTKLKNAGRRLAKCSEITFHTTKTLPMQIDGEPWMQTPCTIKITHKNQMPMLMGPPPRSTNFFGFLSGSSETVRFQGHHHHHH
T2 sequence (Q13574 with tags, fused parts or gaps isoform Q13574-4): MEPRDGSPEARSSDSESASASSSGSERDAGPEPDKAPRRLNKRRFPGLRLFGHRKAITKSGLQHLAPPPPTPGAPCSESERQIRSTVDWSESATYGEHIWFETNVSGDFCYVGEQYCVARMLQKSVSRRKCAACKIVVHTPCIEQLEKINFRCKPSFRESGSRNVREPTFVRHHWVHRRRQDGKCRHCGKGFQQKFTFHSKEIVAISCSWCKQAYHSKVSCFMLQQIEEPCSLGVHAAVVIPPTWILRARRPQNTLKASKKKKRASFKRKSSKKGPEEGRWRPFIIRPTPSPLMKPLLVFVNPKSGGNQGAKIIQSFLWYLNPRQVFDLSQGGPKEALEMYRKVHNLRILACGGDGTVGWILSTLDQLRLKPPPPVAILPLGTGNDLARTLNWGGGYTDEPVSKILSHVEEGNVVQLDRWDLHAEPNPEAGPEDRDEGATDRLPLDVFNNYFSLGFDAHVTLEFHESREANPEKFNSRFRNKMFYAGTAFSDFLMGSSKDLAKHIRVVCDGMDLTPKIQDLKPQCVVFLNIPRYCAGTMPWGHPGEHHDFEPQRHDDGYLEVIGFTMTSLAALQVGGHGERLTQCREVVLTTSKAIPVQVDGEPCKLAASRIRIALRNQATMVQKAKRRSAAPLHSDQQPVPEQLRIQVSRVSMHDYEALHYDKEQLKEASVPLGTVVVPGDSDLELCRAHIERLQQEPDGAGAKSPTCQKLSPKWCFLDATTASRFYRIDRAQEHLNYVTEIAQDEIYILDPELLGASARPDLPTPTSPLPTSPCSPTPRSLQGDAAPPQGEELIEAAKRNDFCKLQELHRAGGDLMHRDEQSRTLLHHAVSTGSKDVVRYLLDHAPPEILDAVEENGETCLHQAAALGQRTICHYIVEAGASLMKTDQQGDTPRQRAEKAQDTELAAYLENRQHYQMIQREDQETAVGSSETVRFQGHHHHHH

Row | Structure (SMILES) | IC50 [1] [µM] | IC50 [2] [µM]
1 | Cn1c(=O)cc(N(Cc2ccccc2)CC2CC2)c2nc(C#N)ccc21 [Example 52, 8-(benzyl(cyclopropylmethyl)amino)-5-methyl-6-oxo-5,6-dihydro-1,5-naphthyridine-2-carbonitrile] | 4.5 | 12
2 | Cn1c(=O)cc(N(CC2CC2)c2ccc(-n3cccc3)cc2)c2nc(C#N)ccc21 [Example 54, 8-((4-(1H-pyrrol-1-yl)phenyl) (cyclopropylmethyl)amino)-5-methyl-6-oxo-5,6-dihydro-1,5-naphthyridine-2-carbonitrile] | 3.9 | 1.3
3 | COc1cc(N(CC2CC2)c2cc(=O)n(C)c3ccc(C#N)nc23)ccc1F [Example 55, 8-((cyclopropylmethyl)(4-fluoro-3-methoxyphenyl)amino)-5-methyl-6-oxo-5,6-dihydro-1,5-naphthyridine-2-carbonitrile] | 7.7 | 2.2
4 | Cn1c(=O)nc(N(CC2CC2)c2ccc(C3CC3)cc2)c2nc(C#N)ccc21 [Example 57, 4-((cyclopropylmethyl)(4-cyclopropylphenyl)amino)-1-methyl-2-oxo-1,2-dihydropyrido[3,2-d]pyrimidine-6-carbonitrile] | 4.2 | 0.15
5 | Cn1c(=O)nc(N(CC2CC2)c2ccc(C3CC3)cc2)c2nc(Cl)ccc21 [Example 58, 6-chloro-4-((cyclopropylmethyl) (4-cyclopropylphenyl)amino)-1-methylpyrido[3,2-d]pyrimidin-2(1H)-one] | 3.8 | 1
6 | Cn1c(=O)c(C#N)c(N(CC2CC2)c2ccc(C3CC3)cc2)c2nc(C#N)ccc21 [Example 59, 8-((cyclopropylmethyl)(4-cyclopropylphenyl)amino)-5-methyl-6-oxo-5,6-dihydro-1,5-naphthyridine-2,7-dicarbonitrile] | > 37 | 6.6
7 | Cn1c(=O)c(C#N)c(N(CC2CC2)c2ccc(C3CC3)cc2)c2ncccc21 [Example 60, 4-((cyclopropylmethyl)(4-cyclopropylphenyl)amino)-1-methyl-2-oxo-1,2-dihydro-1,5-naphthyridine-3-carbonitrile] | > 37 | 1.4
8 | COCc1ccccc1N(CC1CC1)c1cc(=O)n(C)c2ccc(C#N)nc12 [Example 67, 8-((cyclopropylmethyl)(2-(methoxymethyl)phenyl)amino)-5-methyl-6-oxo-5,6-dihydro-1,5-naphthyridine-2-carbonitrile] | 4.5 | 21
9 | Cc1ccc(-c2ccc(N(CC3CC3)c3cc(=O)n(C)c4ccc(C#N)nc34)cc2)cc1 [Example 69, 8-((cyclopropylmethyl)(4′-methyl-[1,1′-biphenyl]-4-yl)amino)-5-methyl-6-oxo-5,6-dihydro-1,5-naphthyridine-2-carbonitrile] | 5.5 | 7.5
10 | Cn1c(=O)cc(N(CC2CC2)c2cccc(-c3ccccc3)c2)c2nc(C#N)ccc21 [Example 70, 8-([1,1′-biphenyl]-3-yl(cyclopropylmethyl)amino)-5-methyl-6-oxo-5,6-dihydro-1,5-naphthyridine-2-carbonitrile] | 0.17 | 27
11 | Cn1c(=O)cc(N(CC2CC2)c2cccc(-c3ccc(Cl)cc3)c2)c2nc(C#N)ccc21 [Example 71, 8-((4′-chloro-[1,1′-biphenyl]-3-yl)(cyclopropylmethyl)amino)-5-methyl-6-oxo-5,6-dihydro-1,5-naphthyridine-2-carbonitrile] | 0.14 | 15
12 | COc1ccc(-c2ccc(N(CC3CC3)c3cc(=O)n(C)c4ccc(C#N)nc34)cc2)cc1 [Example 73, 8-((cyclopropylmethyl)(4′-methoxy-[1,1′-biphenyl]-4-yl)amino)-5-methyl-6-oxo-5,6-dihydro-1,5-naphthyridine-2-carbonitrile] | 5.3 | 2
13 | Cc1cccc(-c2ccc(N(CC3CC3)c3cc(=O)n(C)c4ccc(C#N)nc34)cc2)c1 [Example 74, 8-((cyclopropylmethyl)(3′-methyl-[1,1′-biphenyl]-4-yl)amino)-5-methyl-6-oxo-5,6-dihydro-1,5-naphthyridine-2-carbonitrile] | 6.2 | 1.5
14 | Cc1ccccc1-c1ccc(N(CC2CC2)c2cc(=O)n(C)c3ccc(C#N)nc23)cc1 [Example 75, 8-((cyclopropylmethyl)(2′-methyl-[1,1′-biphenyl]-4-yl)amino)-5-methyl-6-oxo-5,6-dihydro-1,5-naphthyridine-2-carbonitrile] | 3.3 | 0.88
15 | Cn1c(=O)cc(N(CC2CC2)c2ccc(-c3cccc(Cl)c3)cc2)c2nc(C#N)ccc21 [Example 76, 8-((3′-chloro-[1,1′-biphenyl]-4-yl)(cyclopropylmethyl)amino)-5-methyl-6-oxo-5,6-dihydro-1,5-naphthyridine-2-carbonitrile] | 6.2 | 2.1
16 | COc1cccc(-c2ccc(N(CC3CC3)c3cc(=O)n(C)c4ccc(C#N)nc34)cc2)c1 [Example 77, 8-((cyclopropylmethyl)(3′-methoxy-[1,1′-biphenyl]-4-yl)amino)-5-methyl-6-oxo-5,6-dihydro-1,5-naphthyridine-2-carbonitrile] | 9.5 | 4
17 | Cn1c(=O)cc(N(CC2CC2)c2ccc(-c3ccccc3O)cc2)c2nc(C#N)ccc21 [Example 80, 8-((cyclopropylmethyl)(2′-hydroxy-[1,1′-biphenyl]-4-yl)amino)-5-methyl-6-oxo-5,6-dihydro-1,5-naphthyridine-2-carbonitrile] | 6.3 | 1.3
18 | Cn1c(=O)cc(N(CC2CC2)c2ccc(-c3cccc(O)c3)cc2)c2nc(C#N)ccc21 [Example 81, 8-((cyclopropylmethyl)(3′-hydroxy-[1,1′-biphenyl]-4-yl)amino)-5-methyl-6-oxo-5,6-dihydro-1,5-naphthyridine-2-carbonitrile] | 3.8 | 3.7
19 | CN(C)C(=O)c1ccc(-c2ccc(N(CC3CC3)c3cc(=O)n(C)c4ccc(C#N)nc34)cc2)cc1 [Example 82, 4′-((6-cyano-1-methyl-2-oxo-1,2-dihydro-1,5-naphthyridin-4-yl) (cyclopropylmethyl)amino)-N,N-dimethyl-[1,1′-biphenyl]-4-carboxamide] | 3.8 | 2
20 | Cn1c(=O)cc(N(CC2CC2)c2ccc(-c3cccc(C(N)=O)c3)cc2)c2nc(C#N)ccc21 [Example 84, 4′-((6-cyano-1-methyl-2-oxo-1,2-dihydro-1,5-naphthyridin-4-yl)(cyclopropylmethyl)amino)-[1,1′-biphenyl]-3-carboxamide] | 18 | 7.6
21 | Cn1c(=O)cc(N(CC2CC2)c2ccc(-c3cccc(CNS(C)(=O)=O)c3)cc2)c2nc(C#N)ccc21 [Example 85, N-((4′-((6-cyano-1-methyl-2-oxo-1,2-dihydro-1,5-naphthyridin-4-yl) (cyclopropylmethyl)amino)-[1,1′-biphenyl]-3-yl)methyl)methanesulfonamide] | 5.6 | 4
22 | CN(C)c1ccc(-c2ccc(N(CC3CC3)c3cc(=O)n(C)c4ccc(C#N)nc34)cc2)cc1 [Example 87, 8-((cyclopropylmethyl)(4′-(dimethylamino)-[1,1′-biphenyl]-4-yl)amino)-5-methyl-6-oxo-5,6-dihydro-1,5-naphthyridine-2-carbonitrile] | 1.1 | 2
